# From PubChem BioAssay (NCI)
# Values joined by “and” are separate entries in the source; they are usually repeats but may differ in a detail not shown here. Equal values may be shown once.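 All cell lines were grown in 96-well plates and treated with compound for 48 hours. Abbreviation: GI50, concentration required for 50% inhibition of growth. The concentration for full growth arrest is given as TGI.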 Where a SMILES comes first, the peptide text is derived from it. [ ]: non-standard residue; d: D form. The star is where a group is joined. NMeF = CN[C@@H](Cc1ccccc1)C(=O)O; NMeV = CN[C@H](C(=O)O)C(C)C; Boc = CC(C)(C)OC(=O)*; OBn = c1ccc(CO*)cc1
# How the values were obtained:
# Assay in all cases: growth of human tumour cells (NCI), 48 h
# COLO 205 colon = system: COLO 205 colon
# HCC-2998 colon = system: HCC-2998 colon
# HCT-116 colon = system: HCT-116 colon
# HOP-92 NSCLC = system: HOP-92 NSCLC
# HT29 colon = system: HT29 colon
# NCI-H460 lung = system: NCI-H460 lung
# NCI/ADR-RES ovarian = system: NCI/ADR-RES ovarian
# OVCAR-3 ovarian = system: OVCAR-3 ovarian
# OVCAR-5 ovarian = system: OVCAR-5 ovarian
# SW-620 colon = system: SW-620 colon
SMILES,TGI (COLO 205 colon),TGI (HCC-2998 colon),TGI (HCT-116 colon),TGI (HOP-92 NSCLC),TGI (HT29 colon),TGI (NCI-H460 lung),TGI (NCI/ADR-RES ovarian),TGI (OVCAR-3 ovarian),TGI (OVCAR-5 ovarian),TGI (SW-620 colon),GI50 (COLO 205 colon),GI50 (HCC-2998 colon),GI50 (HCT-116 colon),GI50 (HOP-92 NSCLC),GI50 (HT29 colon),GI50 (NCI-H460 lung),GI50 (NCI/ADR-RES ovarian),GI50 (OVCAR-3 ovarian),GI50 (OVCAR-5 ovarian),GI50 (SW-620 colon)
Cc1cc(=O)oc2c(OS(C)(=O)=O)c(OS(C)(=O)=O)ccc12,> 100 µM,> 100 µM,> 100 µM,> 100 µM,> 100 µM,> 100 µM,> 100 µM,> 100 µM,> 100 µM,> 100 µM,,,,,,,,,,
N#Cc1c(N)nc(NCc2ccccc2)c(C#N)c1-c1ccccc1Cl,> 100 µM,> 100 µM,> 100 µM,25.5 µM,> 100 µM,30.1 µM,> 100 µM,49.7 µM,> 100 µM,> 100 µM,74 µM,> 100 µM,16.3 µM,3.57 µM,73.4 µM,4.99 µM,37.1 µM,18.4 µM,26.8 µM,18.9 µM
O=C(Nc1ccc(OCc2nnc(-c3ccccc3)o2)c(F)c1)Nc1ccc(Cl)c(C(F)(F)F)c1,5.52 µM,7.83 µM,6.37 µM,5.17 µM,9.9 µM,3.7 µM,7.65 µM,7.25 µM,> 100 µM,35.4 µM,2.11 µM,2.58 µM,1.81 µM,1.78 µM,2.33 µM,1.52 µM,2.27 µM,2.06 µM,7.56 µM,3.6 µM
COc1cccc(Cn2c(-c3nonc3NC(C)=O)nc3ccccc32)c1,> 100 µM,> 100 µM,> 100 µM,17.6 µM,> 100 µM,> 100 µM,> 100 µM,> 100 µM,> 100 µM,> 100 µM,3.45 µM,5.83 µM,4.94 µM,2.16 µM,3.28 µM,2.45 µM,3.24 µM,6.56 µM,4.04 µM,3.08 µM
O=C1/C(=C/c2ccccc2F)CN(C(=O)C(Cl)Cl)C/C1=C\c1ccccc1F,2.57 µM,1.96 µM,0.286 µM,3.39 µM,1.06 µM,2.24 µM,2.64 µM,1.02 µM,2.29 µM,0.343 µM,0.711 µM,0.696 µM,0.131 µM,1.53 µM,0.271 µM,0.55 µM,0.342 µM,0.319 µM,0.796 µM,0.093 µM
CC(C)[C@@H](C(=O)N1CCC[C@H]1C(=O)OCc1ccccc1)N(C)C(=O)[C@H](C(C)C)N(C)C(=O)[C@H](Cc1ccccc1)N(C)C(=O)[C@H](NC(=O)OC(C)(C)C)C(C)C (Boc-[dV][NMeF][NMeV][NMeV]P-OBn),> 100 µM,> 100 µM,> 100 µM,> 100 µM,> 100 µM,> 100 µM,> 50 µM,> 100 µM,> 100 µM,> 50 µM and 26.7 µM,36.1 µM,68.9 µM,19.6 µM,20.9 µM,,17.5 µM,,> 100 µM,,12.5 µM
COC1=CC(c2ccc[nH]2)=N/C1=C\c1[nH]c(C)c(C(C)=O)c1C,> 100 µM,> 100 µM,> 100 µM,5.13 µM,> 100 µM,> 22.8 µM,> 100 µM,> 100 µM,> 100 µM,,0.79 µM,2.08 µM,0.0576 µM,0.671 µM,0.088 µM,0.451 µM,0.458 µM,0.178 µM,> 100 µM,0.0605 µM
